# From patent US20160227783A1, “AGROCHEMICAL FORMULATION AID FOR MICRONUTRIENT UPTAKE IN PLANTS, PLANT HEALTH BENEFITS AND HERBICIDE PERFORMANCE” (Adjuvants Plus USA, INC., priority 2015, published 2016)
# Marks after values point to notes of the source that are not given here.
# Legend:
# [1] = test system: Velvetleaf; test: Influence of water conditioners on the control of velvetleaf 21 DAT in the greenhouse; conditions: velvetleaf 21 DAT greenhouse
# [2] = test system: glyphosate resistant canola Nexera 1012; test: Canola leaf tissue mineral composition after glyphosate with or without Composition 2; type: in vivo; conditions: for % K / % N / % P / % S / Fe ppm / Mn ppm / Zn ppm: Control: glyphosate 0.45 kg/ha alone
# Experimental: (§1) A trial was conducted to evaluate the effect of early and or late application of glyphosate with Composition 2 on yield of glyphosate resistant canola. The RR canola was Nexera 1012. The trial was conducted on a silt loam soil with 40-47% sand, 30-50% silt and 10-23% clay, 1.4-2.9% organic matter, and pH of 6.4-8.2. The plot was planted to field pea and then hard red spring wheat the previous two years. Treatments were arranged in a randomized complete block design with four (4) replications each while the control (no-Composition 2) was replicated only twice. Plots were seeded with Nexera 1012 at seeding depth of about 1.2 to 2.5 cm, 10° C. soil temperature and plant population of approximately 110-115 seeds m2. Plants were fertilized with 87-31-9-22 N—P—K—S pounds per acre via spreading urea and potash and putting phosphorus (Alpine and 11-52-0) and sulfur through the drill. In-crop application of glyphosate at a rate of 0.45 kg ha-1 (180 g/ac) with Composition 2 at 1 L/ac was applied at 3-4 leaf stage (Early application), 6 leaf stage (Normal application), after 10 leaf stage (late) and at both 3-4 leaf and after 10 leaf stages (Early/late application). The control treatments were sprayed with glyphosate alone. Each treatment was replicated four (4) times except the control treatment which had only two (2) replications.
# (§2) Plant leaf tissues were collected at one and two weeks after spraying within each treatment to determine the mineral compositions. At physiological maturity with 70% of the seeds on the main raceme turned black, plants were swathed and allowed to cure for three weeks before being combined. Prior to swathing, fifty randomly selected plants were used for seed yield and yield components analysis. Data on number of fruits/plant, percent seed oil and seed protein were collected and analysed. An area of […] of swath for each plot was combined and used for yield (bu/ac) determination. Seed yield (bu/ac) from combine was adjusted to 8% seed moisture content. Variables response to treatments were compared by analysis of variance (ANOVA) by using SPSS statistical software and mean values were subjected to ANOVA and significant means at F<0.05 were separated by the Duncan's multiple range test.
# [3] = test system: glyphosate resistant canola Nexera 1012; test: Canola field trial: flowering, yield components, oil, protein and seed yield; type: in vivo
# Experimental: as §1, §2
# [4] = canola leaf tissue one week after application, Control: glyphosate alone
# [5] = canola leaf tissue one week after spraying
# [6] = canola leaf tissue two weeks after spraying
# [7] = canola, Control: glyphosate 0.45 kg/ha alone
smiles,measurement,setting,value
"O=C(O)COc1ccc(Cl)cc1Cl [2,4-D Acid, 2,4-D]","2,4-D Acid (% control)","[1]; 2,4-D Acid (Rugged) 0.1 kg a.e/ha, herbicide alone",31 g %
"CNC.O=C(O)COc1ccc(Cl)cc1Cl [2,4-D DMA, 2,4-D Dimethylamine]","2,4-D DMA (% control)","[1]; 2,4-D DMA 0.1 kg a.e./ha, herbicide alone",29 g %
"N.N.O=S(=O)(O)O [AMS, Diammonium sulfate]","2,4-D Acid (% control)","[1]; 2,4-D Acid (Rugged) 0.1 kg a.e/ha +2% AMS",73 ab %
same,"2,4-D DMA (% control)","[1]; 2,4-D DMA 0.1 kg a.e./ha +2% AMS",58 def %
"COc1c(Cl)ccc(Cl)c1C(=O)O.NCCOCCO [Dicamba DGA, dicamba diglycolamine]",Dicamba DGA (% control),"[1]; Dicamba DGA (Clarity) 0.034 kg a.e/ha, herbicide alone",36 g %
O=C(O)CNCP(=O)(O)O [glyphosate],Fe reduction,[2]; [4],22.7%
same,Mn concentration drop from the initial concentration,[2]; [4],13.4%
same,Zn concentration drop from the initial concentration,[2]; [4],14.5%
same,% K,[2]; [5],4.1^a %
same,% N,[2]; [5],3.7^a %
same,% P,[2]; [5],0.3^a %
same,% S,[2]; [5],1.0^a %
same,Fe ppm,[2]; [5],85.1^a ppm
same,Mn ppm,[2]; [5],76.4^a ppm
same,Zn ppm,[2]; [5],20.7^a ppm
same,% K,[2]; [6],4.3^a %
same,% N,[2]; [6],4.6^a %
same,% P,[2]; [6],0.5^a %
same,% S,[2]; [6],1.3^a %
same,Fe ppm,[2]; [6],105^a ppm
same,Mn ppm,[2]; [6],83.2^a ppm
same,Zn ppm,[2]; [6],22.6^a ppm
same,oil content,"[3]; canola seed, Control: glyphosate 0.45 kg/ha alone",37.7%
same,percent protein,"[3]; canola seed, Control: glyphosate alone",lowest value
same,Number of fruits per plant,[3]; [7],78.5
same,Seed yield,[3]; [7],40.9 bu/ac
same,thousand seed weight,[3]; [7],3.1 g
same,Percent green counts,"[3]; control (no-Composition 2) compared to Early, Normal and Early/Late treatments",higher
same,Flowering,[3]; no-Composition 2 (glyphosate alone) plots compared to Composition 2 treated plots,delayed
